The source of these data is patent publication US20080194546A1, “Pyrido-, Pyrazo- and Pyrimido-Pyrimidine Derivatives as mTOR Inhibitors” (KuDOS Pharmaceuticals Limited, priority 2005, published 2008).

One experiment concerns the target T1, mTOR (Homo sapiens, UniProt P42345).
T1 construct: mTOR protein was isolated from HeLa cell cytoplasmic extract by immunoprecipitation; endogenous in cells; host or cells: HeLa cell cytoplasmic extract (immunoprecipitate)
Kind of experiment: Biological Assay: mTOR enzyme activity, mTOR immunoprecipitated from HeLa cell cytoplasmic extract, recombinant PHAS-1 as substrate. It counts as biochemical. The conditions noted are these: Biological Assay, single values; read-out: IC50.

Experiment [1] has as its target recombinant mTOR (FLAG-tagged, amino acid residues 1362 to 2549) (Homo sapiens, UniProt P42345). Kind of experiment: Alternative Enzyme Assay: AlphaScreen, inhibition of phosphorylation by recombinant mTOR. Format: biochemical. The conditions noted are these: Alternative Enzyme Assay, single values; read-out: IC50.
The test system of a further experiment is T47D cells. Kind of experiment: Cell Proliferation Assay (GI50), sulforhodamine B (SRB) assay. Format: cell-based. The conditions noted are these: Homo sapiens, 120 hours, SRB, single values. Here is the method:
Cell growth was assessed using the sulforhodamine B (SRB) assay (A). T47D (ECACC, 85102201) cells were routinely passaged in RPMI (Invitrogen, 42401018) plus 10% foetal calf serum (FCS), 1% L-glutamine (Gibco BRL, 25030) to a confluence not greater than 80%. To undertake the assay, T47D cells were seeded at 2.5×10^3 cells/well in […] RPMI plus 10% foetal calf serum, 1% L-glutamine in 96 well plates (Costar, 3904) and incubated at 37° C. (+5% CO2) in a humidified incubator. Once the cells had fully adhered (typically following 4-5 hours incubation) the plate was removed from the incubator and 10 μL of the diluent added to the control wells (A1-12 and B1-12). Compound was prepared in a six point semi-log dilution at 10× the final concentration required e.g. for a 6 point range of 30 μM to 100 nM in semi-log steps dilution started at 300 μM in stock plate. Dosing was completed by addition of 10 μL of compound at highest concentration to C1-12 through to the lowest concentration in H1-12. The plates were then incubated for 120 hours prior to SRB analysis.
Upon completion of incubation, media was removed and the cells fixed with […] of ice cold 10% (w/v) trichloroacetic acid. The plates were incubated at 4° C. for 20 minutes and then washed four times with water. Each well of cells was then stained with 100 μl of 0.4% (w/v) SRB (Sulforhodamine B, Sigma, Poole, Dorset, UK, Catalogue number S-9012) in 1% acetic acid for 20 minutes before washing four times with 1% acetic acid. Plates were then dried for 2 hours at room temperature. The dye from the stained cells was solubilized by the addition of 100 μl of 10 mM Tris Base into each well. Plates were gently shaken and left at room temperature for 30 minutes before measuring the optical density at 564 nm on a Microquant microtiter plate reader. The concentration of inhibitor eliciting a 50% reduction in growth (GI50) was determined by analysis of staining intensity of the treated cells as a percentage of the vehicle control wells using Excelfit software.
(A) Skehan, P., Storung, R., Scudiero, R., Monks, A., McMahon, J., Vistica, D., Warren, J. T., Bokesch, H., Kenny, S. and Boyd, M. R. (1990) New […] cytotoxicity assay for anticancer-drug screening. J. Natl. Cancer Inst. 82, 1107-1112.

The test system of experiment [2] is phosphorylation of Serine 473 in Akt in MDA-MB-468 cells. Description: In Vitro phospho-Ser473 Akt Assay (Acumen Explorer). Format: cell-based. The conditions noted are these: Homo sapiens; MDA-MB-468 cells, single values; read-out: IC50 (phospho-Ser473 Akt assay).

Regarding `C[C@@H]1CN(c2nc(N3CCOCC3)c3ccc(-c4ccsc4)nc3n2)C[C@H](C)O1` [Comparative Example 1k, reference compound], the IC50 at mTOR is 33 nM; in experiment [1], 225 nM; in experiment [2] it was 412 nM. In the experiment on T47D cells, this compound returned a GI50 of 268 nM.
